Measured values published in patent publication US9981925B2, “Substituted benzo[d][1,2,3]triazines as p70S6K inhibitors” (Merck Patent GmbH, priority 2012, dated 2018).

What was measured:
p70S6K (T412E mutant) = p70S6K (T412E mutant) (Homo sapiens (Human), UniProt P23443, T412E); assay: p70S6K enzyme assay; format: biochemical; details: 24 μM ATP, 90 min at 25° C., Caliper mobility shift
Method: p70S6K inhibitor compounds were diluted and plated in 96 well plates. A reaction mixture including the following components were then added to the compound plate to initiate the enzyme reaction: p70S6K (3 nM, T412E mutant, Millipore) was mixed with 24 μM ATP in an assay buffer containing 100 mM Hepes (pH 7.5), 5 mM MgCl2, 1 mM DTT, 0.015% Brij and 1 μM of the substrate peptide FITC-AHA-[…]-OH (derived from the S6 ribosomal protein sequence, FITC=fluorescein isothiocyanate, AHA=6-aminohexanoic acid). The reaction was incubated for 90 min at 25° C., before the addition of 10 mM EDTA to stop the reaction. The proportion of substrate and product (phosphorylated) peptide was analyzed on a Caliper Life Sciences Lab Chip 3000, using a pressure of −1.4 psi, and upstream and downstream voltages of −3000 and −700, respectively. Product peaks were resolved before substrate peaks on the resulting chromatograms. To assess the inhibitory potential of the compounds, IC50 values were determined, as shown above.

His-AKT (Full Length) = His-AKT (Full Length) (Homo sapiens (Human), UniProt P31749); assay: AKT/PKB kinase assay; format: biochemical; details: 160 μM ATP, 90 min at 25° C., Caliper mobility shift
Method: In order to measure AKT inhibition in the Caliper Life Sciences LC3000, a TTP Mosquito liquid handling instrument was used to place 125 nl of the appropriate concentration of inhibitor in 100% DMSO (for a dose response curve calculation) into each well of a 384-well plate. To this reaction, the following components were added to a final volume of 12.5 μl: • 0.1 ng/μl His-AKT (Full Length) (Invitrogen, Part # P2999, Lot #641228C); • 160 μM ATP (Fluka, 02055); • 1 mM DTT (Sigma, D0632); • 1 mM MgCl2 (Sigma, M1028); • 1 μM substrate peptide (sequence FITC-AHA-[…]-NH2), synthesized by • Tufts Peptide Synthesis service; • 100 mM HEPES pH 7.5 (Calbiochem, 391338); and • 0.015% Brij-35 (Sigma, B4184).
The reaction was incubated for 90 min at 25° C., and then stopped by the addition of 70 μl of Stop buffer (100 mM HEPES pH 7.5, 0.015% Brij-35, 10 mM EDTA (Sigma, E7889)). The plate was read on a Caliper LC 3000 in an Off-Chip mobility shift assay format, using the following parameters for a 12-sipper chip: screening pressure −2.3 psi, upstream voltage −500, and downstream voltage −3000. These conditions cause unphosphorylated substrate and phosphorylated product peptide to resolve as separate peaks allowing direct measurement of percentage of conversion of substrate to product. The percent conversion was plotted against concentration of inhibitor to produce a sigmoidal dose response curve, from which an IC50 was calculated.

Chain of His-AKT (Full Length) (P31749 whole entry): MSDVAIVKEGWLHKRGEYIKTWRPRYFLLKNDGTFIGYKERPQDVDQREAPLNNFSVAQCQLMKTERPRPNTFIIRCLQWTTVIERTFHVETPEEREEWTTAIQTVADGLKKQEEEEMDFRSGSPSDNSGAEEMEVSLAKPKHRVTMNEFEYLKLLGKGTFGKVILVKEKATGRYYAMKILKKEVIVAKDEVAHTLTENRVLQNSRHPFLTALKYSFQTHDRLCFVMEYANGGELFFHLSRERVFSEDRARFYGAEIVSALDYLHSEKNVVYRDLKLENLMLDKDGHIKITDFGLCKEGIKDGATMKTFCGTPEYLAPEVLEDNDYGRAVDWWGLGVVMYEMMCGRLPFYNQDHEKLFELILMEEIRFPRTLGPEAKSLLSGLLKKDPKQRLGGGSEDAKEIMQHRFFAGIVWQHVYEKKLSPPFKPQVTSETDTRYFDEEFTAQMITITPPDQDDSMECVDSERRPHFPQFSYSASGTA
Chain of p70S6K (T412E mutant) (P23443 whole entry T412E): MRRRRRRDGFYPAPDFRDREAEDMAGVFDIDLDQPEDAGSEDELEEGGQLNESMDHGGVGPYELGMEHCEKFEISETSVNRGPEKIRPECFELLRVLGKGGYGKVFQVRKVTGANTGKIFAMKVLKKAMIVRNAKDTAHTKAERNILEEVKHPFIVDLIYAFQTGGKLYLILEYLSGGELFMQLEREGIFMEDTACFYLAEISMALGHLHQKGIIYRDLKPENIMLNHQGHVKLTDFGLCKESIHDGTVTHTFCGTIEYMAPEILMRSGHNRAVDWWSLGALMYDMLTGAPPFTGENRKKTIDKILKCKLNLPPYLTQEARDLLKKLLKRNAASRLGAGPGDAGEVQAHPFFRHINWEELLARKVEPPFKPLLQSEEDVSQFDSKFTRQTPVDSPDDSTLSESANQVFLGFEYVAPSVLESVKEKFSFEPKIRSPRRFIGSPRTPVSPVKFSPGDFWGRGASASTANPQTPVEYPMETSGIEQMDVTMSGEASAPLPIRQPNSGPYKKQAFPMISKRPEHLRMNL

Row | Compound | IC50 (p70S6K (T412E mutant)) [µM] | IC50 (His-AKT (Full Length)) [µM]
1 | NC(=O)c1cccc2c(NCc3cccc(C(F)(F)F)c3)nnnc12 [Compound 1, 4-(3-Trifluoromethyl-benzylamino)-benzo[d][1,2,3]triazine-8-carboxamide] | 0.101 to 0.5 | > 1
2 | NC(=O)c1cccc2c(NCc3ccc(Cl)c(Cl)c3)nnnc12 [Compound 2, 4-((3,4-dichlorobenzyl)amino)benzo[d][1,2,3]triazine-8-carboxamide] | < 0.025 | > 1
3 | NC(=O)c1cccc2c(NCc3cccnc3)nnnc12 [Compound 3, 4-((pyridin-3-ylmethyl)amino)benzo[d][1,2,3]triazine-8-carboxamide] | > 1 | > 1
4 | NC(=O)c1cccc2c(NCc3ccc(Cl)c(C(F)(F)F)c3)nnnc12 [Compound 4, 4-((4-chloro-3-(trifluoromethyl)benzyl)amino)benzo[d][1,2,3]triazine-8-carboxamide] | < 0.025 | > 1
5 | NC(=O)c1cccc2c(NCc3ccccn3)nnnc12 [Compound 5, 4-((pyridin-2-ylmethyl)amino)benzo[d][1,2,3]triazine-8-carboxamide] | > 1 | > 1
6 | NC(=O)c1cccc2c(NCc3ccccc3)nnnc12 [Compound 6, 4-(benzylamino)benzo[d][1,2,3]triazine-8-carboxamide] | 0.501 to 1 | > 1
7 | NC(=O)c1cccc2c(NCc3ccc(C(F)(F)F)cn3)nnnc12 [Compound 7, 4-(((5-(trifluoromethyl)pyridin-2-yl)methyl)amino)benzo[d][1,2,3]triazine-8-carboxamide] | > 1 | > 1
8 | NC(=O)c1cccc2c(NCc3ccc(C(F)(F)F)cc3)nnnc12 [Compound 8, 4-((4-(trifluoromethyl)benzyl)amino)benzo[d][1,2,3]triazine-8-carboxamide] | 0.025 to 0.1 | > 1
9 | NC(=O)c1cccc2c(NCc3cccc(F)c3)nnnc12 [Compound 9, 4-((3-fluorobenzyl)amino)benzo[d][1,2,3]triazine-8-carboxamide] | 0.501 to 1 | > 1
10 | COc1cc([C@@H](CN2CCC2)Nc2nnnc3c(C(N)=O)cccc23)ccc1Cl [Compound 10, (S)-4-((2-(azetidin-1-yl)-1-(4-chloro-3-methoxyphenyl)ethyl)amino)-benzo[d][1,2,3]triazine-8-carboxamide] | < 0.025 | 0.101 to 0.5
11 | COc1cc([C@@H](CN(C)C)Nc2nnnc3c(C(N)=O)cccc23)ccc1Cl [Compound 11, (S)-4-((1-(4-chloro-3-methoxyphenyl)-2-(dimethylamino)ethyl)amino)-benzo[d][1,2,3]triazine-8-carboxamide] | 0.025 to 0.1 | 0.101 to 0.5
12 | NC(=O)c1cccc2c(N[C@H](CN3CCC3)c3ccc(F)c(C(F)(F)F)c3)nnnc12 [Compound 12, (S)-4-((2-(azetidin-1-yl)-1-(4-fluoro-3-(trifluoromethyl)phenyl)ethyl)amino)benzo[d][1,2,3]triazine-8-carboxamide] | < 0.025 | < 0.025
13 | CN(C)C[C@@H](Nc1nnnc2c(C(N)=O)cccc12)c1ccc(Cl)c(C(F)(F)F)c1 [Compound 13, (S)-4-((1-(4-chloro-3-(trifluoromethyl)phenyl)-2-(dimethylamino)ethyl)amino)benzo-[d][1,2,3]triazine-8-carboxamide] | < 0.025 | < 0.025
14 | NC(=O)c1cccc2c(N[C@H](CN3CCC3)c3ccc(Cl)c(C(F)(F)F)c3)nnnc12 [Compound 14, (S)-4-((2-(azetidin-1-yl)-1-(4-chloro-3-(trifluoromethyl)phenyl)ethyl)amino)benzo[d][1,2,3]triazine-8-carboxamide] | < 0.025 | < 0.025
15 | CN(C)C[C@@H](Nc1nnnc2c(C(N)=O)cccc12)c1ccc(Cl)c(Cl)c1 [Compound 15, (S)-4-((1-(3,4-dichlorophenyl)-2-(dimethylamino)ethyl)amino)benzo[d][1,2,3]triazine-8-carboxamide] | < 0.025 | < 0.025
16 | NC(=O)c1cccc2c(N[C@H](CN3CCC3)c3ccc(Cl)c(Cl)c3)nnnc12 [Compound 16, (S)-4-((2-(azetidin-1-yl)-1-(3,4-dichlorophenyl)ethyl)amino)benzo[d][1,2,3]triazine-8-carboxamide] | < 0.025 | < 0.025
17 | CN(C)C[C@@H](Nc1nnnc2c(C(N)=O)cccc12)c1ccc(Cl)c(C#N)c1 [Compound 17, (S)-4-((1-(4-chloro-3-cyanophenyl)-2-(dimethylamino)ethyl)amino)-benzo[d][1,2,3]triazine-8-carboxamide] | 0.025 to 0.1 | 0.101 to 0.5
18 | N#Cc1cc([C@@H](CN2CCC2)Nc2nnnc3c(C(N)=O)cccc23)ccc1Cl [Compound 18, (S)-4-((2-(azetidin-1-yl)-1-(4-chloro-3-cyanophenyl)ethyl)amino)benzo[d][1,2,3]triazine-8-carboxamide] | < 0.025 | 0.101 to 0.5
19 | NC(=O)c1cncc2c(N[C@@H](CN3CCC3)c3ccc(Cl)c(C(F)(F)F)c3)ncnc12 [Compound 19, (R)-4-((2-(azetidin-1-yl)-1-(4-chloro-3-(trifluoromethyl)phenyl)ethyl)amino)pyrido[4,3-d]pyrimidine-8-carboxamide] | > 1 | > 1
20 | NC(=O)c1cncc2c(N[C@H](CN3CCC3)c3ccc(Cl)c(C(F)(F)F)c3)ncnc12 [Compound 20, (S)-4-((2-(azetidin-1-yl)-1-(4-chloro-3-(trifluoromethyl)phenyl)ethyl)amino)pyrido[4,3-d]pyrimidine-8-carboxamide] | < 0.025 | 0.025 to 0.1
21 | NC(=O)c1cccc2c(NC3CNCCC3c3cccc(C(F)(F)F)c3)nnnc12 (stereo not shown) [Compound 21, 4-((4-(3-(trifluoromethyl)phenyl)piperidin-3-yl)amino)benzo[d][1,2,3]triazine-8-carboxamide] | < 0.025 | < 0.025
22 | NC(=O)c1cccc2c(NC3CNCCC3c3ccc(C(F)(F)F)cc3)nnnc12 (stereo not shown) [Compound 22, 4-((4-(4-(trifluoromethyl)phenyl)piperidin-3-yl)amino)benzo[d][1,2,3]triazine-8-carboxamide] | < 0.025 | 0.101 to 0.5
23 | NC(=O)c1ccnc2c(NC3CNCCC3c3ccc(F)c(Cl)c3)ncnc12 (stereo not shown) [Compound 23, 4-[4-(3-Chloro-4-fluoro-phenyl)-piperidin-3-ylamino]-pyrido[3,2-d]pyrimidine-8-carboxamide] | 0.025 to 0.1 | 0.101 to 0.5
24 | NC(=O)c1ccnc2c(NC3CNCCC3c3ccc(C(F)(F)F)cc3)ncnc12 (stereo not shown) [Compound 25, 4-((4-(4-(trifluoromethyl)phenyl)piperidin-3-yl)amino)pyrido[3,2-d]pyrimidine-8-carboxamide] | < 0.025 | 0.501 to 1
25 | CNC[C@@H](Nc1ncnc2c(C(N)=O)ccnc12)c1ccc(C(F)(F)F)c(F)c1 [Compound 26, 4-[(S)-1-(3-Fluoro-4-trifluoromethyl-phenyl)-2-methylamino-ethylamino]-pyrido[3,2-d]pyrimidine-8-carboxylic Acid Amide] | < 0.025 | < 0.025
26 | NC(=O)c1ccnc2c(N[C@H](CN3CCC3)c3ccc(C(F)(F)F)cc3)ncnc12 [Compound 27, 4-[(S)-2-Azetidin-1-yl-1-(4-trifluoromethyl-phenyl)-ethylamino]-pyrido[3,2-d]pyrimidine-8-carboxylic Acid Amide] | < 0.025 | 0.101 to 0.5
27 | CCNC[C@@H](Nc1ncnc2c(C(N)=O)ccnc12)c1ccc(F)c(Br)c1 [Compound 30, 4-[(S)-1-(3-Bromo-4-fluoro-phenyl)-2-ethylamino-ethylamino]-pyrido[3,2-d]pyrimidine-8-carboxylic Acid Amide] | – | 0.025 to 0.1
28 | CN(C)C[C@@H](Nc1ncnc2c(C(N)=O)ccnc12)c1ccc(Cl)c(F)c1 [Compound 53, 4-[(S)-1-(4-Chloro-3-fluoro-phenyl)-2-dimethylamino-ethylamino]-pyrido[3,2-d]pyrimidine-8-carboxylic Acid Amide] | – | 0.025 to 0.1
29 | CCNC[C@@H](Nc1ncnc2c(C(N)=O)ccnc12)c1ccc(F)c(Cl)c1 [Compound 61, 4-[(S)-1-(3-Chloro-4-fluoro-phenyl)-2-ethylamino-ethylamino]-pyrido[3,2-d]pyrimidine-8-carboxylic Acid Amide] | – | 0.025 to 0.1
